The record followed here is patent publication US20180244629A1, “Compounds And Compositions For The Treatment Of Cancer” (The Broad Institute, Inc., priority 2013, published 2018).

SMILES strings stand for the structures.

This experiment relates to HeLa cells. In words: PARP cleavage assay (immunoblot). The class given is cell-based. How it is done:
The mechanism of cell death was determined after contacting the cells with the compound in Example 1. […] Cells were treated for 24 h with the indicated concentrations of each agent, lysed, and immunoblotted with anti-PARP or anti-actin.
For orientation: A western blot detects proteins with antibodies after separation by electrophoresis.

`OO` [hydrogen peroxide]: where the note is “Hela cells treated for 24 h, anti-PARP immunoblot, FIG. 3”, the “mechanism of cell death (PARP cleavage)” value is “caused necrosis but not apoptosis”.
Regarding `CN[C@@H]1C[C@H]2O[C@@](C)([C@@H]1OC)n1c3ccccc3c3c4c(c5c6ccccc6n2c5c31)C(=O)NC4` [staurosporine], the cell death entry (Hela cells, 10 μM, 24 h) is “almost complete cell death”.
